{"source": "patent US20060257441A1", "about": "“Natural essential oil sanitary insect pest repellent and its use” (SUZUKI YUSHI INDUSTRIAL CO., LTD., priority 2005, published 2006)", "system": "Croton bug", "assay": "Physiological activity (Croton bug repellency) test, Test Example 5", "type": "in vivo", "conditions": "3% solution in 1:1 hexane/acetone", "excerpt": "A fraction 1 (16.192 g) of copaiba oil was given by silica gel column chromatography (replenishment silica gel: BW-127ZH, 350 g) using 3 liter of hexane as an elution solvent. A fraction 2 (2.868 g) was given by silica gel column chromatography (same as above) using a 4:4:1 mixture of hexane/chloroform/ethyl acetate as an elution solvent. A fraction 3 (1.401 g) was given by fractionating the remnant of the fraction 2 using a 1:1 solvent mixture of ethyl acetate/chloroform 21 as an elution solvent.\nFor comparison, the same test was conducted using copaiba oil and β-caryophyllene. The specimen was a 3% solution in the solvent. The solution was given using a 1:1 (volume ratio) mixture of hexane and acetone."}
{"smiles": "C=C1CC/C=C(\\C)CC[C@@H]2[C@@H]1CC2(C)C", "note": "[β-caryophyllene]", "values": [{"measurement": "Repellency ratio (%) with time", "setting": "4 hours", "result": 96.2, "unit": "%"}, {"measurement": "Repellency ratio (%) with time", "setting": "24 hours", "result": 70.6, "unit": "%"}, {"measurement": "Repellency ratio (%) with time", "setting": "48 hours", "result": 52.6, "unit": "%"}]}
